{"source": "patent US9447447B2", "about": "“Method and apparatus for testing cardiotoxicity and evaluating cardiomyocytes” (National University Corporation Tokyo Medical and Dental …, priority 2010, dated 2016)", "key": {"[1]": {"tested_on": "human ES cell-derived myocardial clusters", "excerpt": "They were received in raw and recovered using a glass capillary (Vitrolife), cultured in a medium plus 20% inactivated FBS, 1% non-essential amino acids, 1% penicillin-streptomycin, and 0.2% β-mercaptoethanol in DMEM (all purchased from Invitrogen).\nCollected clusters were then placed in a multi-electrode tip (Alfa Med Scientific). The day on which they were placed was set to Day 0. Clusters for which a 1st peak of an extracellular potential (FP) of 200 mV or more was acquired on Day 3 was used for data acquisition. A multi-electrode membrane potential measurement system (Nikkyo Technos Corp.) was used to acquire data.\nPre-agent application data (called ‘Before’) was acquired for 10 minutes before agent application. The agent was dissolved in deionized distilled water (DDW) or DMSO, and diluted in PBS before its application. […] Extracellular potential duration (FPD) and STV (short term variability) of the FPD was calculated from the acquired data.\nA steep downward peak of the FP corresponds to the inflow of Na^+. A gradual upward peak corresponds to the outflow of K^+. The FPD was defined as the time between the Na^+ and K^+ peaks. In addition, the STV of the FPD was evaluated as the variation between beats of FPD. STV was calculated by the following equation.\n[formula] The increase in the variation between the FPDs can be evaluated as an increase in the value of STV. […]"}, "[2]": {"settings": "both in vivo and in vitro; cited from earlier work"}}, "data": [{"smiles": "COc1ccc([C@@H]2Sc3ccccc3N(CCN(C)C)C(=O)[C@@H]2OC(C)=O)cc1", "note": "[Diltiazem]", "values": [{"measurement": "position in two-dimensional plot (X: FPD score, FPD extended by 10% or more; Y: STV score, STV increased by 100% or more)", "setting": "[1]", "value": "upper left corner"}]}, {"smiles": "CC(C)NCC(O)c1ccc(NS(C)(=O)=O)cc1", "note": "(racemic) [DL-sotalol]", "values": [{"measurement": "known effect on APD and STV", "setting": "[2]", "value": "increase the APD and STV"}, {"measurement": "position in two-dimensional plot (X: FPD score, FPD extended by 10% or more; Y: STV score, STV increased by 100% or more)", "setting": "[1]", "value": "upper right corner"}]}]}
